Laboratory results as given in patent publication US20260053778A1, “USE OF NOVEL PPAR ACTIVITY MODULATOR FOR PREVENTION, AMELIORATION OR TREATMENT OF DEGENERATIVE BRAIN DISEASES” (POSTECH RESEARCH AND BUSINESS DEVELOPMENT FOUNDATION, priority 2022, published 2026).

What was measured:
[1] = tested on: 5×FAD Alzheimer's dementia-induced mice; assay: qPCR of proinflammatory cytokines in brain tissue; type: in vivo, mouse; settings: 5×FAD mice
Excerpt: The gene expression levels of proinflammatory cytokines and related enzymes (II-1B, Il-6, and iNOS) in the brain tissues of the DTMB-administered and non-administered groups of 5×FAD Alzheimer's dementia-induced mice were confirmed by qPCR.

[2] = target: T1, HIS-tagged recombinant PPAR α protein (Homo sapiens, UniProt Q07869); assay: CNBr-drug and protein binding experiment, PPARα; settings: Western blotting after 24 h incubation
T1 sequence (Q07869 239-466 limits assumed): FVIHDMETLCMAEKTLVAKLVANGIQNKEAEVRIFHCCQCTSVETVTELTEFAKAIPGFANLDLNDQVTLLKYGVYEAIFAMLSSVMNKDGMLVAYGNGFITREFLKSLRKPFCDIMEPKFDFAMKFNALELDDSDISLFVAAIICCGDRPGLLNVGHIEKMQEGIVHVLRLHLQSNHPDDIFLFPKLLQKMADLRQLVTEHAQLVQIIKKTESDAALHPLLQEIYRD
Protocol: Since the computer prediction program predicted that DTMB binds to PPAR transcription factors, CNBr-drug and protein binding experiments were conducted to confirm whether DTMB actually binds to PPAR. To determine the actual degree of drug-protein binding, the reaction of the protein of the PPAR-α, β/δ, γ ligand-binding portion with the DTMB drug-bound CNBr beads was confirmed through Western blotting.
Specifically, CNBr Sepharose 4B beads were prepared and activated according to the instructions. 100 mg of CNBr-activated Sepharose 4B beads were incubated with drugs or DMSO at 4° C. for 18 h. The drug-bound beads reacted with HIS-tagged recombinant PPAR α, β/δ, and γ proteins. After 24 h of incubation, Western blotting experiments were performed to confirm whether the recombinant proteins bound to the drug-bound beads.

primary microglia = assay: Quantitative PCR of inflammation genes in primary microglia; type: cell-based, mouse; settings: qPCR
Excerpt: In addition, the gene expression levels of Il-6. Il-1 #, and iNOS, which are NF-κB target genes related to chronic inflammation, and Arg-1, an anti-inflammatory marker, were confirmed by quantitative PCR (qPCR) analysis in primary microglia.
Total RNA was isolated using TRI reagent (Molecular Research Center, Cincinnati, OH, USA). RNA was reverse transcribed using the ImProm-II Reverse Transcription System (Promega) according to the manufacturer's instructions. For detection and quantification, the StepOnePlus Real-Time PCR System (Applied Biosystems, Foster City, CA, USA) was used with FastStart Universal SYBR Green Master (Roche, Basel, Switzerland). Real-time qPCR data were analyzed using the comparative CT method.

BV2 cell line = assay: Cell viability assay (MTT), BV2; type: cell-based, mouse; settings: BV2, 48 h, at higher concentrations
Protocol: (§1) Cell viability was measured by a chromogenic assay that biologically reduces 3-(4,5-dimethyl-thiazol-2-yl)-2,5-diphenyltetrazolium bromide (MTT) to formazan in living cells. Briefly, cells were cultured in 96-well plates in a final volume of 100 μL. After 24 h, the culture medium was replaced with fresh medium containing DTMB compound, and the cells were cultured for another 48 h. Next, MTT (dissolved in PBS at 5 mg/mL) was added to the culture medium. The cells were cultured in the dark at 37° C. for 1 h, and then the supernatant was removed from the wells. The formazan crystals were dissolved by adding total MTT solvent (4 mM HCl and 0.1% Nonidet P-40, both dissolved in isopropanol), and the absorbance was measured at 570 nm using a microplate reader, Infinite 200 Pro NanoQuant microplate reader (TECAN, Switzerland).

HMO6 cell line = assay: Cell viability assay (MTT), HMO6; type: cell-based; settings: HMO6, 48 h, at higher concentrations
Protocol: as §1

5×FAD mice = assay: RT-PCR of adult microglia isolated from brains of treated mice; type: in vivo, mouse; settings: microglia isolated from 5×FAD mice administered DTMB
Protocol: To elucidate whether the gliosis reduction effect of DTMB administration confirmed in Example 6 was due to functional changes in microglia, brain tissues from mice administered DTMB were extracted, microglia were isolated, and the expression of genes related to inflammation and activation in microglia was analyzed to what extent they changed.
To isolate adult microglia from the brains of 5×FAD mice treated with DTMB or vehicle, a magnetic-activated cell sorting (MACS) system was used. Whole brain tissue was dissociated to the single-cell level using the gentleMACs dissociation kit (Miltenyi Biotech, Bergisch Gladbach, Germany) according to the manufacturer's instructions. To isolate the immune cell fraction, a 47% Percoll concentration gradient was applied to the single-cell mixture and centrifuged at 2,000 rpm for 10 min. Adult microglia were isolated by LS column after incubation with anti-CD11b MicroBeads (Miltenyi Biotech). RT-PCR was performed using the isolated adult microglia to analyze the expression of microglial activation and inflammation-related genes. The sample size was 3 mice per group.

NF-κB = NF-κB gene expression by qPCR after MG132 and DTMB; type: cell-based; settings: MG132 (20 μM) 6 hours, DTMB (25 μM) 24 hours
Protocol: In addition, to inhibit proteasomal degradation, cells were treated with MG132 (20 μM) for 6 hours and DTMB (25 μM) for 24 hours, and then the gene expression level of NF-κB was confirmed by qPCR analysis. As shown in the results of FIGS. 2L and 2M, this response was mediated by proteasomal degradation rather than transcriptional inhibition, since there was no change in the mRNA level of NF-κB.

COc1ccc(-c2cc(=O)oc3c(C)c(OC(=O)[C@H](Cc4c[nH]c5ccccc45)NC(=O)OC(C)(C)C)ccc23)cc1 [DTMB, [4-(4-Methoxyphenyl)-8-methyl-2-oxochromen-7-yl](2S)-3-(1H-indol-3-yl)-2-[(2-methylpropan-2-yl)oxycarbonylamino]propanoate]
induced: Expression of anti-inflammatory marker Arg-1 (primary microglia)
decreased: Expression level of Il-1β [1] | Expression level of Il-6 [1] | Expression level of iNOS [1] | Expression of Il-1β (primary microglia) | Expression of Il-6 (primary microglia) | Expression of iNOS (primary microglia) | Gene expression of Cxcl10 (5×FAD mice) | Gene expression of IL-1β (5×FAD mice) | Gene expression of IL-6 (5×FAD mice) | Gene expression of Iba-1 (5×FAD mice) | Gene expression of Itgax2 (5×FAD mice) | Gene expression of TNF-α (5×FAD mice) | Gene expression of Trem2 (5×FAD mice) | Gene expression of clec7a (5×FAD mice)
no change: mRNA level of NF-κB (NF-κB)
no cytotoxicity: Cytotoxicity (MTT) (BV2 cell line) | Cytotoxicity (MTT) (HMO6 cell line)
binds to all subtypes of PPAR: Binding of PPARα ligand-binding protein to drug-bound CNBr beads [2]
